# Test results as given in patent publication US20230357179A1, “RAF KINASE INHIBITORS AND METHODS OF USE THEREOF” (Deciphera Pharmaceuticals, LLC, priority 2021, published 2023).
# Experiments:
# B-Raf (V600E) kinase = biological target: T1, B-Raf (V600E) kinase (Homo sapiens, UniProt P15056, V600E); test: Biochemical assay for B-Raf (V600E).1 (coupled pyruvate kinase/lactate dehydrogenase); conditions: read-out: BRAF V600E.1 IC50
# T1 construct: B-Raf (V600E) residues 416-766 with a; GST (N); purchased SignalChem
# T1 sequence (P15056 416-766 V600E): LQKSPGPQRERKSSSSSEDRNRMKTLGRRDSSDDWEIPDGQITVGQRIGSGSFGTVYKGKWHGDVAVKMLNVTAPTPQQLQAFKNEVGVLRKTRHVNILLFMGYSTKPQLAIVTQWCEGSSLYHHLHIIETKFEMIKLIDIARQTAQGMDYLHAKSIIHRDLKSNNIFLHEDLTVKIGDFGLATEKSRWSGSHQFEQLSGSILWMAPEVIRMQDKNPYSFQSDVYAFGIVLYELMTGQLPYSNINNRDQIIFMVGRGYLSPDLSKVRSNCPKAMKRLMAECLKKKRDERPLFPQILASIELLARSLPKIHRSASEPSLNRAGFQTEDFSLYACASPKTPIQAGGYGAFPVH
# In short: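 IC50 came from four-parameter sigmoidal fits of percent inhibition, using reaction rates over 3-4 h. Continuous A340 reading (6 h, 30 °C) of a pyruvate kinase/lactate dehydrogenase-coupled reaction: B-Raf V600E 0.03 nM, MEK 30.1 nM, ATP 1 mM, Tris pH 7.5, 1% DMSO.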
# A-Raf kinase = biological target: T2, A-Raf kinase (Homo sapiens, UniProt P10398, Y301D/Y302D); test: Biochemical assay for A-Raf.1 (coupled pyruvate kinase/lactate dehydrogenase); conditions: read-out: ARAF.1 IC50
# T2 construct: purchased Sigma
# T2 sequence (P10398 with tags, fused parts or gaps Y301D/Y302D): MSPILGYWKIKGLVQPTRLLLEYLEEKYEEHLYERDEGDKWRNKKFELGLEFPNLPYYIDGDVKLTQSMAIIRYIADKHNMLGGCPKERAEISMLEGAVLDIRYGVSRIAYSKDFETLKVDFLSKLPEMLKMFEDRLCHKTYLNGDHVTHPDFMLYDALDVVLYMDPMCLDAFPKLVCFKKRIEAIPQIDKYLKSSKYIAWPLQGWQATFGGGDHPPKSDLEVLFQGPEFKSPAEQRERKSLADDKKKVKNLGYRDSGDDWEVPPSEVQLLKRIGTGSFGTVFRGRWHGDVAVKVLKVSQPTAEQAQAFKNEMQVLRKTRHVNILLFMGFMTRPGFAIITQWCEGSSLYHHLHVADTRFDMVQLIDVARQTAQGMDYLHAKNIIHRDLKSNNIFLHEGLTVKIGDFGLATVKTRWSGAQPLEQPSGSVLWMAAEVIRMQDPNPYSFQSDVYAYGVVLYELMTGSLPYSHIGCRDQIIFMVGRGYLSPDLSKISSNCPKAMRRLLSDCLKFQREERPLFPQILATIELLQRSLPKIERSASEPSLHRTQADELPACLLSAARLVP
# In short: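 IC50 values came from four-parameter sigmoidal fits of percent inhibition, using rates over the 4 to 5 h window of continuous A340 readings (6 h, 30° C). The coupled PK/LDH system tracked NADH oxidation during 5.55 nM A-Raf activity on 30.1 nM MEK at 1 mM ATP, buffer pH 7.5.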
# C-Raf kinase = biological target: T3, C-Raf kinase (Homo sapiens, UniProt P04049, Y340D/Y341D); test: Biochemical assay for C-Raf.1 (coupled pyruvate kinase/lactate dehydrogenase); conditions: read-out: CRAF.1 IC50
# T3 construct: Y340D,; GST (N); purchased Sigma
# T3 sequence (P04049 307-648 Y340D/Y341D): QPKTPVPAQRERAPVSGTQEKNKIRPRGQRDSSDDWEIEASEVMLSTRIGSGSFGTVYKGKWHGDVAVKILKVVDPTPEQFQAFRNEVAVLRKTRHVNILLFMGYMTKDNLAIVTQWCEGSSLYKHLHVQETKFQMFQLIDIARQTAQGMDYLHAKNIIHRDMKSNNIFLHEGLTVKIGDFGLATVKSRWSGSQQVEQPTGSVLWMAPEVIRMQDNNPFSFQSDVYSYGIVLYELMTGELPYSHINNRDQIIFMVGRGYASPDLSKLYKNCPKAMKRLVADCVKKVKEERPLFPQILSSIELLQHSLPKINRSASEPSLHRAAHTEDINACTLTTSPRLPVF
# In short: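 NADH depletion at 340 nm monitored continuously for 6 h at 30° C, with rates taken over 4–5 h. The coupled pyruvate kinase/lactate dehydrogenase reaction used 1 mM ATP, 30.1 nM MEK substrate and 0.43 nM kinase at pH 7.5. IC50 was fitted sigmoidally from percent inhibition of serially diluted compound.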
# A375 cells = test: A375 cell proliferation assay (1), resazurin, 96-well; assay type: cell-based; conditions: Homo sapiens, A-375, inhibition of cell proliferation
# In short: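 Viability was read by resazurin fluorescence at 540 nm excitation and 600 nm emission, using a 440 μM solution added for 5–6 h at the end of culture. IC50 came from the curve fit.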
IC50 (B-Raf (V600E) kinase),IC50 (A-Raf kinase),IC50 (C-Raf kinase),IC50 (A375 cells),Compound
≤ 100 nM,> 1000 nM,≤ 100 nM,1000 to 10000 nM,COC(=O)Nc1cc(-c2cc(-c3cc(NC(=O)NCCC4(C)CC4)cnc3C)cc(OCCO)n2)ccn1 [Example 151]
≤ 100 nM,> 1000 nM,≤ 100 nM,100 to 500 nM,Cc1cc(F)c(NC(=O)NCCC(C)(C)C)cc1-c1cc(N2CCOCC2)nc(N2CCOCC2)c1 [Example 10]
≤ 100 nM,> 1000 nM,≤ 100 nM,1000 to 10000 nM,COC(=O)Nc1cc(-c2nccc(-c3cc(NC(=O)NCCC(C)(C)F)c(F)cc3C)n2)ccn1 [Example 147]
≤ 100 nM,> 1000 nM,≤ 100 nM,500 to 1000 nM,Cc1ccc(NC(=O)NCCC(C)(C)C)cc1-c1cc(N2CCOCC2)nc(N2CCOCC2)c1 [Example 4]
≤ 100 nM,100 to 500 nM,≤ 100 nM,1000 to 10000 nM,COC1(CCNC(=O)Nc2cc(-c3ccnc(-c4ccnc(NC(=O)C5CC5)c4)n3)c(C)cc2F)CC1 [Example 117]
≤ 100 nM,> 1000 nM,≤ 100 nM,1000 to 10000 nM,COC(C)(C)CCNC(=O)Nc1cc(-c2ccnc(-c3ccnc(NC(=O)C4CC4)c3)c2)c(F)cc1F [Example 162]
≤ 100 nM,> 1000 nM,≤ 100 nM,1000 to 10000 nM,Cc1ncc(NC(=O)NCCC(C)(C)C)cc1-c1cc(-c2ccnc(NC(=O)C3CC3)c2)cnn1 [Example 120]
≤ 100 nM,> 1000 nM,≤ 100 nM,1000 to 10000 nM,COC(=O)Nc1cc(-c2cc(-c3cc(NC(=O)NCCC(C)(C)F)cnc3C)cc(OCCO)n2)ccn1 [Example 165]
≤ 100 nM,> 1000 nM,≤ 100 nM,1000 to 10000 nM,CCC(C)CCNC(=O)Nc1cnc(C)c(-c2ccnc(-c3ccnc(NC(=O)C4CC4)c3)c2)c1 (stereo not drawn) [Example 124]
≤ 100 nM,> 1000 nM,≤ 100 nM,≤ 100 nM,COC(=O)Nc1cc(-c2nc(OCCO)cc(-c3cc(NC(=O)NC4CC(C)(C)C4)c(F)cc3C)n2)ccn1 [Example 158]
≤ 100 nM,> 1000 nM,500 to 1000 nM,1000 to 10000 nM,CNC(=O)c1cc(-c2cnnc(-c3cc(NC(=O)NCCC(C)(C)OC)c(F)cc3C)c2)ccn1 [Example 123]
≤ 100 nM,> 1000 nM,≤ 100 nM,1000 to 10000 nM,Cc1cc(F)c(NC(=O)NCCC(C)(C)F)cc1-c1cccc(-c2ccnc3[nH]ncc23)c1 [Example 100]
≤ 100 nM,> 1000 nM,100 to 500 nM,1000 to 10000 nM,COC(=O)Nc1cc(-c2cnnc(-c3cc(NC(=O)NCCC(C)(C)OC)c(F)cc3C)c2)ccn1 [Example 140]
≤ 100 nM,> 1000 nM,100 to 500 nM,1000 to 10000 nM,COC(=O)Nc1cc(-c2cc(-c3cc(NC(=O)NC[C@H]4CCO4)c(F)cc3C)cc(OCCO)n2)ccn1 [Example 96]
≤ 100 nM,> 1000 nM,100 to 500 nM,1000 to 10000 nM,COC[C@H]1CCN(C(=O)Nc2cnc(C)c(-c3cc(OCCO)nc(-c4ccnc(NC(=O)OC)c4)c3)c2)C1 [Example 152]
≤ 100 nM,> 1000 nM,≤ 100 nM,1000 to 10000 nM,COC(=O)Nc1cc(-c2cc(-c3cc(NC(=O)N[C@H]4C[C@](C)(F)C4)cnc3C)cc(OCCO)n2)ccn1 [Example 157]
≤ 100 nM,> 1000 nM,≤ 100 nM,1000 to 10000 nM,COC(=O)Nc1cc(-c2cccc(-c3cc(NC(=O)NCCC4(OC)CC4)cnc3C)c2)ncn1 [Example 138]
≤ 100 nM,100 to 500 nM,≤ 100 nM,500 to 1000 nM,"Cc1ccc(NC(=O)Nc2cccc(C(F)(F)F)c2)cc1-c1cc(OCCO)nc(N2CCOCC2)c1 [Example 3, 1-(3-(2-(2-hydroxyethoxy)-6-morpholinopyridin-4-yl)-4-methylphenyl)-3-(3-(trifluoromethyl)phenyl)urea]"
≤ 100 nM,> 1000 nM,≤ 100 nM,100 to 500 nM,COC(=O)Nc1cc(-c2cc(-c3cc(NC(=O)NCCC(C)C)c(F)cc3C)cc(OCCO)n2)ccn1 [Example 115]
≤ 100 nM,> 1000 nM,100 to 500 nM,1000 to 10000 nM,COC[C@@H]1CCN(C(=O)Nc2cnc(C)c(-c3cc(OCCO)nc(-c4ccnc(NC(=O)OC)c4)c3)c2)C1 [Example 160]

IC50 (B-Raf (V600E) kinase),IC50 (A-Raf kinase),IC50 (C-Raf kinase),IC50 (A375 cells),Compound
≤ 100 nM,> 1000 nM,≤ 100 nM,1000 to 10000 nM,COC(=O)Nc1cc(-c2ccnc(-c3cc(NC(=O)NCCC(C)(C)OC)c(F)cc3C)n2)ccn1 [Example 171]
≤ 100 nM,> 1000 nM,≤ 100 nM,500 to 1000 nM,COC(=O)Nc1cc(-c2cccc(-c3cc(NC(=O)NCCC4(C)CC4)cnc3C)c2)ncn1 [Example 170]
≤ 100 nM,100 to 500 nM,≤ 100 nM,≤ 100 nM,Cc1cc(F)c(NC(=O)NCCC(C)(C)C)cc1-c1cc(-c2ccnc(NC(=O)C3CC3)c2)cnn1 [Example 131]
≤ 100 nM,> 1000 nM,≤ 100 nM,1000 to 10000 nM,COC(=O)Nc1cc(-c2nccc(-c3cc(NC(=O)NCCC4(OC)CC4)c(F)cc3C)n2)ccn1 [Example 146]
≤ 100 nM,> 1000 nM,≤ 100 nM,1000 to 10000 nM,COC(=O)Nc1cc(-c2nccc(-c3cc(NC(=O)NCCC4(C)CC4)cnc3C)n2)ccn1 [Example 135]
≤ 100 nM,500 to 1000 nM,≤ 100 nM,1000 to 10000 nM,Cc1cc(F)c(NC(=O)NCCC(C)(C)F)cc1-c1ccnc(-c2ccnc(NC(=O)C3CC3)c2)c1 [Example 159]
≤ 100 nM,500 to 1000 nM,≤ 100 nM,500 to 1000 nM,Cc1ncc(NC(=O)NCCC2(C)CC2)cc1-c1cc(OCCO)nc(-c2ccnc(NC(=O)C3CC3)c2)n1 [Example 133]
≤ 100 nM,> 1000 nM,≤ 100 nM,1000 to 10000 nM,COC(=O)Nc1cc(-c2cnnc(-c3cc(NC(=O)NCCC(C)(C)F)c(F)cc3C)c2)ccn1 [Example 141]
≤ 100 nM,> 1000 nM,≤ 100 nM,500 to 1000 nM,Cc1cc(F)c(NC(=O)NCCC(C)(C)F)cc1-c1cc(OCCO)nc(-c2ccnc3[nH]ncc23)c1 [Example 94]
≤ 100 nM,> 1000 nM,≤ 100 nM,1000 to 10000 nM,COC(=O)Nc1cc(-c2cc(-c3cc(NC(=O)NCCC4(C)CC4)cnc3C)ccn2)ccn1 [Example 103]
≤ 100 nM,> 1000 nM,100 to 500 nM,1000 to 10000 nM,Cc1cc(F)c(NC(=O)NCCC2(C)COC2)cc1-c1cc(OCCO)nc(-c2ccnc3[nH]ncc23)c1 [Example 110]
≤ 100 nM,> 1000 nM,≤ 100 nM,500 to 1000 nM,COC(=O)Nc1nccc(-c2cc(OCCO)cc(-c3cc(NC(=O)NCCC4(C)CC4)c(F)cc3C)c2)n1 [Example 122]
≤ 100 nM,> 1000 nM,≤ 100 nM,1000 to 10000 nM,Cc1cc(F)c(NC(=O)NCCC(C)(C)F)cc1-c1cc(OCCO)nc(-c2ccnc3[nH]ccc23)c1 [Example 97]
≤ 100 nM,> 1000 nM,≤ 100 nM,1000 to 10000 nM,Cc1ncc(NC(=O)NCCC(C)(C)F)cc1-c1nccc(-c2ccnc(NC(=O)C3CC3)c2)n1 [Example 130]
≤ 100 nM,> 1000 nM,≤ 100 nM,1000 to 10000 nM,Cc1cc(F)c(NC(=O)NCC23CC(F)(C2)C3)cc1-c1cc(OCCO)nc(-c2ccnc3[nH]ncc23)c1 [Example 111]
≤ 100 nM,> 1000 nM,≤ 100 nM,500 to 1000 nM,Cc1ncc(NC(=O)NC2CC(C)(C)C2)cc1-c1cc(OCCO)nc(-c2ccnc(NC(=O)C3CC3)c2)n1 [Example 144]
≤ 100 nM,> 1000 nM,≤ 100 nM,1000 to 10000 nM,Cc1cc(F)c(NC(=O)NCCC(C)(C)C)cc1-c1cc(OCCO)nc(C2=CCOCC2)c1 [Example 7]
100 to 500 nM,> 1000 nM,> 1000 nM,1000 to 10000 nM,Cc1ncc(NC(=O)NCCN2CCC2)cc1-c1cc(OCCO)nc(-c2ccnc(NC(=O)C3CC3)c2)c1 [Example 172]
≤ 100 nM,> 1000 nM,≤ 100 nM,100 to 500 nM,COC(=O)Nc1cc(-c2nc(OCCO)cc(-c3cc(NC(=O)NCCC(C)(C)F)c(F)cc3C)n2)ccn1 [Example 161]
